Reference: paper PMC11062899, “De novo development of small cyclic peptides that are orally bioavailable” (Nature Chemical Biology, 2023)
Several values for one entry are separate records, joined by “and”; a condition that tells them apart may be missing. Equal entries are not always repeated. Where two headings read alike, the source gives them in different places.

Legend:
rat α-thrombin = molecular target: T1, rat α-thrombin (Rattus norvegicus, UniProt P18292); assay: Protease inhibition, Ki for rat α-thrombin (fluorogenic substrate Z-Gly-Gly-Arg-AMC); assay type: biochemical; conditions: for Rat alpha thrombin inhibition, slope normalized to DMSO: replicates R1-R3
T1 construct: rat α-thrombin (Molecular Innovations) were used at final concentrations of 2 nM and 3 nM; purchased Molecular Innovations
Method in brief: (§1)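 Ki values come from Cheng–Prusoff correction of IC50, itself fitted by four-parameter logistic regression of activity versus a no-peptide control. Assays used 2 nM human or 3 nM rat thrombin, 50 μM Z-Gly-Gly-Arg-AMC, 30 min kinetic fluorescence at 25 °C.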

human α-thrombin = human α-thrombin (Homo sapiens, UniProt P00734); assay: Protease inhibition, Ki for human α-thrombin (fluorogenic substrate Z-Gly-Gly-Arg-AMC); assay type: biochemical; conditions: for Human alpha thrombin inhibition, slope normalized to DMSO: replicates R1-R3
Method in brief: as §1

[1] = Passive artificial membrane permeability (PAMPA);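 for Permeability% Average: top well sample relative to theoretical equilibrium sample by TIC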
[2] = peptide concentration 1.00E+02 uM
[3] = peptide concentration 1.19E-05 uM
[4] = peptide concentration 1.22E-02 uM
[5] = peptide concentration 1.25E+01 uM
[6] = peptide concentration 1.53E-03 uM
[7] = peptide concentration 1.56E+00 uM
[8] = peptide concentration 1.91E-04 uM
[9] = peptide concentration 1.95E-01 uM
[10] = peptide concentration 2.38E-05 uM
[11] = peptide concentration 2.44E-02 uM
[12] = peptide concentration 2.50E+01 uM
[13] = peptide concentration 3.05E-03 uM
[14] = peptide concentration 3.12E+00 uM
[15] = peptide concentration 3.81E-04 uM
[16] = peptide concentration 3.91E-01 uM
[17] = peptide concentration 4.77E-05 uM
[18] = peptide concentration 4.88E-02 uM
[19] = peptide concentration 5.00E+01 uM
[20] = peptide concentration 6.10E-03 uM
[21] = peptide concentration 6.25E+00 uM
[22] = peptide concentration 7.63E-04 uM
[23] = peptide concentration 7.81E-01 uM
[24] = peptide concentration 9.54E-05 uM
[25] = peptide concentration 9.77E-02 uM

In the case of `O=C1C[C@H]2CCCN2C(=O)[C@H](Cc2ccccc2)NC(=O)[C@@H](NC(=O)c2ccc(Cl)s2)CCCC=CCCCN1` [compound 42], the Ki (rat α-thrombin; average of R1-R3, read-out: Rat alpha thrombin inhibition, Ki Average) is reported as 0.104 µM, the “Rat alpha thrombin inhibition, slope normalized to DMSO” value (rat α-thrombin; [2]) is reported as 11.1 and 8.8 and 6.3 and the “Rat alpha thrombin inhibition, slope normalized to DMSO” value (rat α-thrombin; [3]) is reported as 97.9 and 89.1 and 104.7. The “Rat alpha thrombin inhibition, slope normalized to DMSO” value (rat α-thrombin; [4]) was 95.5 and 96.6 and 90.7, the “Rat alpha thrombin inhibition, slope normalized to DMSO” value (rat α-thrombin; [5]) was 7.6 and 6.9 and 7.3 and the “Rat alpha thrombin inhibition, slope normalized to DMSO” value (rat α-thrombin; [6]) was 101.7 and 97.0 and 102.3. For the same compound, the “Rat alpha thrombin inhibition, slope normalized to DMSO” value (rat α-thrombin; [7]) was 15.7 and 15.6 and 13.6, the “Rat alpha thrombin inhibition, slope normalized to DMSO” value (rat α-thrombin; [8]) was 90.1 and 101.9 and 101.4 and the “Rat alpha thrombin inhibition, slope normalized to DMSO” value (rat α-thrombin; [9]) was 54.3 and 44.0 and 44.2. For the same compound, the “Rat alpha thrombin inhibition, slope normalized to DMSO” value (rat α-thrombin; [10]) was 98.8 and 105.1 and 93.8, the “Rat alpha thrombin inhibition, slope normalized to DMSO” value (rat α-thrombin; [11]) was 96.7 and 81.8 and 91.8 and the “Rat alpha thrombin inhibition, slope normalized to DMSO” value (rat α-thrombin; [12]) was 6.5 and 0.4 and 5.6. The “Rat alpha thrombin inhibition, slope normalized to DMSO” value (rat α-thrombin; [13]) was 104.2 and 96.1 and 93.1, the “Rat alpha thrombin inhibition, slope normalized to DMSO” value (rat α-thrombin; [14]) was 7.9 and 9.5 and 5.7 and the “Rat alpha thrombin inhibition, slope normalized to DMSO” value (rat α-thrombin; [15]) was 106.7 and 100.9 and 91.0. The “Rat alpha thrombin inhibition, slope normalized to DMSO” value (rat α-thrombin; [16]) was 38.3 and 34.0 and 35.5, the “Rat alpha thrombin inhibition, slope normalized to DMSO” value (rat α-thrombin; [17]) was 98.1 and 100.4 and 100.7 and the “Rat alpha thrombin inhibition, slope normalized to DMSO” value (rat α-thrombin; [18]) was 84.8 and 84.4 and 72.7. The “Rat alpha thrombin inhibition, slope normalized to DMSO” value (rat α-thrombin; [19]) was 0.8 and 7.3 and 2.5, the “Rat alpha thrombin inhibition, slope normalized to DMSO” value (rat α-thrombin; [20]) was 104.0 and 93.5 and 94.8 and the “Rat alpha thrombin inhibition, slope normalized to DMSO” value (rat α-thrombin; [21]) was 7.5 and 8.8 and 7.9. For the same compound, the “Rat alpha thrombin inhibition, slope normalized to DMSO” value (rat α-thrombin; [22]) was 97.9 and 91.4 and 101.5, the “Rat alpha thrombin inhibition, slope normalized to DMSO” value (rat α-thrombin; [23]) was 26.2 and 23.7 and 23.1 and the “Rat alpha thrombin inhibition, slope normalized to DMSO” value (rat α-thrombin; [24]) was 96.9 and 98.1 and 96.1. For the same compound, the “Rat alpha thrombin inhibition, slope normalized to DMSO” value (rat α-thrombin; [25]) was 69.5 and 66.8, the IC50 (rat α-thrombin; single replicates R1-R3, read-out: Rat alpha thrombin inhibition, IC50) was 0.215 µM and 0.179 µM and 0.168 µM and the Ki (rat α-thrombin; single replicates R1-R3, read-out: Rat alpha thrombin inhibition, Ki) was 119 nM (2×) and 98.9 nM (2×) and 92.9 nM (2×). For the same compound, the Ki (human α-thrombin; average of R1-R3, read-out: Human alpha thrombin inhibition, Ki Average) was 0.321 µM, the “Human alpha thrombin inhibition, slope normalized to DMSO” value (human α-thrombin; [2]) was 8.6 and 8.9 and 9.5 and the “Human alpha thrombin inhibition, slope normalized to DMSO” value (human α-thrombin; [3]) was 104.7 and 99.7 and 99.1. For the same compound, the “Human alpha thrombin inhibition, slope normalized to DMSO” value (human α-thrombin; [4]) was 46.3 and 101.7 and 85.0, the “Human alpha thrombin inhibition, slope normalized to DMSO” value (human α-thrombin; [5]) was 5.3 and 13.8 and 11.9 and the “Human alpha thrombin inhibition, slope normalized to DMSO” value (human α-thrombin; [6]) was 49.9 and 105.6 and 101.7. For the same compound, the “Human alpha thrombin inhibition, slope normalized to DMSO” value (human α-thrombin; [7]) was 36.6 and 35.2 and 35.3, the “Human alpha thrombin inhibition, slope normalized to DMSO” value (human α-thrombin; [8]) was 98.2 and 106.9 and 104.5 and the “Human alpha thrombin inhibition, slope normalized to DMSO” value (human α-thrombin; [9]) was 49.0 and 78.5 and 77.7. The “Human alpha thrombin inhibition, slope normalized to DMSO” value (human α-thrombin; [10]) was 110.3 and 103.8 and 102.6, the “Human alpha thrombin inhibition, slope normalized to DMSO” value (human α-thrombin; [11]) was 87.9 and 84.7 and 102.8 and the “Human alpha thrombin inhibition, slope normalized to DMSO” value (human α-thrombin; [12]) was 10.1 and 9.5 and 12.3. For the same compound, the “Human alpha thrombin inhibition, slope normalized to DMSO” value (human α-thrombin; [13]) was 53.7 and 99.4 and 62.7, the “Human alpha thrombin inhibition, slope normalized to DMSO” value (human α-thrombin; [14]) was 11.6 and 29.8 and 12.4 and the “Human alpha thrombin inhibition, slope normalized to DMSO” value (human α-thrombin; [15]) was 68.4 and 103.9 and 101.2. The “Human alpha thrombin inhibition, slope normalized to DMSO” value (human α-thrombin; [16]) was 64.4 and 65.7 and 57.7, the “Human alpha thrombin inhibition, slope normalized to DMSO” value (human α-thrombin; [17]) was 106.6 and 102.8 and 103.1 and the “Human alpha thrombin inhibition, slope normalized to DMSO” value (human α-thrombin; [18]) was 55.2 and 93.5 and 76.8. For the same compound, the “Human alpha thrombin inhibition, slope normalized to DMSO” value (human α-thrombin; [19]) was 11.6 (2×) and 7.0, the “Human alpha thrombin inhibition, slope normalized to DMSO” value (human α-thrombin; [20]) was 92.4 and 103.3 and 95.4 and the “Human alpha thrombin inhibition, slope normalized to DMSO” value (human α-thrombin; [21]) was 8.5 and 19.8 and 17.9. The “Human alpha thrombin inhibition, slope normalized to DMSO” value (human α-thrombin; [22]) was 104.5 and 110.5 and 71.2, the “Human alpha thrombin inhibition, slope normalized to DMSO” value (human α-thrombin; [23]) was 53.0 and 40.3 and 48.0 and the “Human alpha thrombin inhibition, slope normalized to DMSO” value (human α-thrombin; [24]) was 104.5 and 106.6 and 99.3. For the same compound, the “Human alpha thrombin inhibition, slope normalized to DMSO” value (human α-thrombin; [25]) was 84.9 and 80.9 and 75.3, the IC50 (human α-thrombin; single replicates R1-R3, read-out: Human alpha thrombin inhibition, IC50) was 0.141 µM and 0.513 µM and 0.595 µM and the Ki (human α-thrombin; single replicates R1-R3, read-out: Human alpha thrombin inhibition, Ki) was 108 nM (2×) and 396 nM (2×) and 459 nM (2×). The “PAMPA permeability: % permeability” value ([1]; 50 μM, 12–18 h, acceptor concentration relative to equilibrium) was 70 ± 22%, the “Permeability% (single replicates R1–R3)” value ([1]; 50 μM, 13 h (Fig. 5d)) was 83.98% and 44.59% and 81.97% and the “Permeability% Average” value ([1]; 50 μM, 13 h (Fig. 5d)) was 70.2%. For the same compound, the Papp at 50 μM ([1]; PAMPA, pH 7.4) was 11.2 ×10⁻⁶ cm/s.
